Test: Stability in Hepes by UV-visible absorption
Assay type: physicochemical
Details: Hepes 50 mM, pH 7.4, 0.2% DMSO; 10 μM, 37 °C; 72 h
Experimental: Therefore, in the following experiments, they were first dissolved in DMSO and further diluted in an excess of buffer. […] Logically, 1,4,7,10-tetramethyl-1,4,7,10-tetraazacyclododecane (4ME) and GA (compound structure was shown in Fig. S1) are considered as the precursor of 4GA and 2GA and therefore used as a comparative study to confirm whether the ancillary ligand had any effect on aggregation.
Figure S8. The stability of 4GA (A) and 2GA (B) in HEPES (50 mM, pH 7.4, 0.2% DMSO) verified by UV-vis absorption spectroscopy. All sample concentrations were 10 μM and kept at 37℃ in atmosphere.

SMILES	stability in buffer
CN1CCN(C(=O)c2cc(O)c(O)c(O)c2)CCN(C)CCN(C(=O)c2cc(O)c(O)c(O)c2)CC1 [2GA, (4,10-dimethyl-1,4,7,10-tetraazacyclododecane-1,7-diyl)bis((3,4,5-trihydroxyphenyl)methanone)]	remain stable at 72 h
O=C(c1cc(O)c(O)c(O)c1)N1CCN(C(=O)c2cc(O)c(O)c(O)c2)CCN(C(=O)c2cc(O)c(O)c(O)c2)CCN(C(=O)c2cc(O)c(O)c(O)c2)CC1 [4GA, (1,4,7,10-tetraazacyclododecane-1,4,7,10-tetrayl)tetrakis((3,4,5-trihydroxyphenyl)methanone)]	remain stable at 72 h

Reference: article PMC12455130, “Multifunctional molecular agent for tau-targeted combinational therapy of Alzheimer’s disease” (The Journal of Biological Chemistry, 2025)
